In brackets after ≈: the same amount, converted by molar mass. Like-named read-outs stand apart in the source and are kept apart here.
Tests used:
[1] = tested on: Enterococcus faecium ATCC 8043; assay: In vitro antibacterial activity, agar dilution MIC; type: cell-based
Summary of the method: (§1)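 In agar dilution on Brain Heart Infusion agar, twelve successive compound dilutions were inoculated at 1:100 (1:10 for slow growers such as Streptococcus) by replicator and incubated 20–24 h at 35–37 °C. MIC is the lowest concentration giving no growth, slight haze or sparse colonies; erythromycin A was the class control.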

[2] = tested on: Escherichia coli SS; assay: In vitro antibacterial activity, agar dilution MIC; type: cell-based; details: read-out: MIC
Summary of the method: as §1

[3] = tested on: Haemophilus influenzae 1177; assay: In vitro antibacterial activity, agar dilution MIC; type: cell-based; details: H. influenzae 1177
Summary of the method: as §1

[4] = tested on: Haemophilus influenzae 504; assay: In vitro antibacterial activity, agar dilution MIC; type: cell-based; details: H. influenzae 504
Summary of the method: as §1

[5] = tested on: Haemophilus influenzae 519A; assay: In vitro antibacterial activity, agar dilution MIC; type: cell-based; details: H. influenzae 519A
Summary of the method: as §1

[6] = tested on: Haemophilus influenzae 632A; assay: In vitro antibacterial activity, agar dilution MIC; type: cell-based; details: H. influenzae 632A
Summary of the method: as §1

[7] = tested on: Haemophilus influenzae 667A; assay: In vitro antibacterial activity, agar dilution MIC; type: cell-based; details: H. influenzae 667A
Summary of the method: as §1

[8] = tested on: Haemophilus influenzae 747C; assay: In vitro antibacterial activity, agar dilution MIC; type: cell-based; details: H. influenzae 747C
Summary of the method: as §1

[9] = tested on: Haemophilus influenzae 751; assay: In vitro antibacterial activity, agar dilution MIC; type: cell-based; details: H. influenzae 751
Summary of the method: as §1

[10] = tested on: Haemophilus influenzae ATCC 10211; assay: In vitro antibacterial activity, agar dilution MIC; type: cell-based; details: ATCC10211, H. influenzae ATCC 10211
Summary of the method: as §1

[11] = tested on: Haemophilus influenzae ATCC 19418; assay: In vitro antibacterial activity, agar dilution MIC; type: cell-based; details: ATCC19418, H. influenzae ATCC 19418
Summary of the method: as §1

[12] = tested on: Haemophilus influenzae ATCC 9795; assay: In vitro antibacterial activity, agar dilution MIC; type: cell-based; details: ATCC9795, H. influenzae ATCC 9795
Summary of the method: as §1

[13] = tested on: Haemophilus influenzae DILL AMP R; assay: In vitro antibacterial activity, agar dilution MIC; type: cell-based; details: H. influenzae DILL AMP R
Summary of the method: as §1

[14] = tested on: Haemophilus influenzae SOL AMP R; assay: In vitro antibacterial activity, agar dilution MIC; type: cell-based; details: H. influenzae SOL AMP R
Summary of the method: as §1

[15] = tested on: Haemophilus influenzae SPK AMP R; assay: In vitro antibacterial activity, agar dilution MIC; type: cell-based; details: H. influenzae SPK AMP R
Summary of the method: as §1

[16] = tested on: Micrococcus luteus ATCC 9341; assay: In vitro antibacterial activity, agar dilution MIC; type: cell-based; details: ATCC9341, M. luteus ATCC 9341, Brain Heart Infusion agar, 20-24 hours, read-out: MIC
Summary of the method: as §1

[17] = tested on: Staphylococcus aureus 45; assay: In vitro antibacterial activity, agar dilution MIC; type: cell-based
Summary of the method: as §1

[18] = tested on: Staphylococcus aureus A5177; assay: In vitro antibacterial activity, agar dilution MIC; type: cell-based; details: S. aureus A5177, Brain Heart Infusion agar, 20-24 hours, read-out: MIC
Summary of the method: as §1

[19] = tested on: Staphylococcus aureus ATCC 6538P; assay: In vitro antibacterial activity, agar dilution MIC; type: cell-based; details: ATCC6538P
Summary of the method: as §1

[20] = tested on: Staphylococcus aureus CMX 503A; assay: In vitro antibacterial activity, agar dilution MIC; type: cell-based; details: CMX503A, S. aureus CMX 503A, Brain Heart Infusion agar, 20-24 hours, read-out: MIC
Summary of the method: as §1

[21] = tested on: Staphylococcus aureus CMX 686B; assay: In vitro antibacterial activity, agar dilution MIC; type: cell-based; details: CMX686B, S. aureus CMX 686B, Brain Heart Infusion agar, 20-24 hours, read-out: MIC
Summary of the method: as §1

[22] = tested on: Staphylococcus epidermidis 3519; assay: In vitro antibacterial activity, agar dilution MIC; type: cell-based; details: S. epidermidis 3519, Brain Heart Infusion agar, 20-24 hours, read-out: MIC
Summary of the method: as §1

[23] = tested on: Streptococcus agalactiae CMX 508; assay: In vitro antibacterial activity, agar dilution MIC; type: cell-based; details: CMX508, S. agalactiae CMX 508, Brain Heart Infusion agar, 20-24 hours, read-out: MIC
Summary of the method: as §1

[24] = tested on: Streptococcus pyogenes 930 CONST; assay: In vitro antibacterial activity, agar dilution MIC; type: cell-based; details: 930CONST
Summary of the method: as §1

[25] = tested on: Streptococcus pyogenes EES61; assay: In vitro antibacterial activity, agar dilution MIC; type: cell-based; details: S. pyogenes EES61, Brain Heart Infusion agar, 20-24 hours, read-out: MIC
Summary of the method: as §1

[26] = tested on: Staphylococcus aureus 45 RAR 2; assay: microbe, parasite or virus in culture; type: cell-based; details: 45RAR2
Summary of the method: as §1

[27] = tested on: Staphylococcus aureus (NCTC 10649); assay: In-vivo mouse protection assay (acute mouse protection test); set-up: species or system Swiss albino mice; details: S. aureus NCTC 10649, dosed 1 and 5 hours post infection, 7 days, read-out: ED50
Experimental: (§2) The acute mouse protection test is conducted on ten mice with each of three levels of drug. Mouse mortality is used to calculate an ED50 value, i.e., the dose of drug required to protect 50% of the test animals against death due to the inoculum challenge.
(§3) The acute mouse protection test is conducted on female, Swiss albino mice, 18-20 grams in weight. […] To check the potency of the inoculum, a titration of the indicated test organism is carried out in control animals. The treatment group of animals is dosed with the test compound at 1 and 5 hours post infection and observed for 7 days. The ED50 values are calculated using the mortality data collected.

[28] = tested on: Streptococcus pneumoniae (6303); assay: as above; set-up: species or system Swiss albino mice; details: 168 h, S. pneumoniae 6303, dosed 1 and 5 hours post infection, 7 days, read-out: ED50
Experimental: as §2, §3

[29] = tested on: Streptococcus pyogenes C-203; assay: as above; set-up: species or system Swiss albino mice
Experimental: as §2, §3

[30] = NCTC10649, sc, 168 h, Subcutaneous
[31] = C203, 168 h, Oral, S. pyogenes C-203, dosed 1 and 5 hours post infection, 7 days, read-out: ED50

Compound | MIC [3] | MIC [4] | MIC [5] | MIC [6] | MIC [7] | MIC [8] | MIC [9] | MIC [10] | MIC [11] | MIC [12] | MIC [13] | MIC [14] | MIC [15] | MIC [16] | MIC [18] | MIC [20] | MIC [21] | MIC [22] | MIC [23] | MIC [24] | also measured
CC[C@H]1OC(=O)[C@H](C)[C@@H](O[C@H]2C[C@@](C)(OC)[C@@H](O)[C@H](C)O2)[C@H](C)[C@@H](O[C@@H]2O[C@H](C)C[C@H](N(C)C)[C@H]2O)[C@](C)(O)C[C@@H](C)[C@@H](N2CCCCC2)[C@H](C)[C@@H](O)[C@]1(C)O [Example 5] | 0.25 µg/mL (≈ 0.311 µM) | 1 µg/mL (≈ 1.25 µM) | 0.5 µg/mL (≈ 0.623 µM) | 1 µg/mL (≈ 1.25 µM) | 1 µg/mL (≈ 1.25 µM) | 1 µg/mL (≈ 1.25 µM) | 4 µg/mL (≈ 4.98 µM) | 1 µg/mL (≈ 1.25 µM) | 2 µg/mL (≈ 2.49 µM) | 1 µg/mL (≈ 1.25 µM) | 1 µg/mL (≈ 1.25 µM) | 1 µg/mL (≈ 1.25 µM) | 1 µg/mL (≈ 1.25 µM) | 0.1 µg/mL (≈ 0.125 µM) | 6.2 µg/mL (≈ 7.72 µM) | 0.39 µg/mL (≈ 0.486 µM) | 0.39 µg/mL (≈ 0.486 µM) | 0.39 µg/mL (≈ 0.486 µM) | 0.05 µg/mL (≈ 0.0623 µM) | > 100 µg/mL | MIC ([1]; ATCC8043, E. faecium ATCC 8043, Brain Heart Infusion agar, 20-24 hours, read-out: MIC): 0.1 µg/mL (≈ 0.125 µM); MIC ([2]; E. coli SS, Brain Heart Infusion agar, 20-24 hours): 0.39 µg/mL (≈ 0.486 µM); MIC ([17]; S. aureus 45, Brain Heart Infusion agar, 20-24 hours, read-out: MIC): 0.78 µg/mL (≈ 0.971 µM); MIC ([19]; S. aureus ATCC 6538P, Brain Heart Infusion agar, 35-37° C., 20-24 hours, read-out: MIC): 0.39 µg/mL (≈ 0.486 µM); MIC [25]: 0.05 µg/mL (≈ 0.0623 µM); MIC [26]: 0.78 µg/mL (≈ 0.971 µM); ED50 ([27]; NCTC10649, 168 h, Oral): 41.9 mg/kg; ED50 [27, 30]: 7.5 mg/kg; ED50 ([28]; Oral): 4.5 mg/kg; ED50 ([28]; sc, Subcutaneous): 0.4 mg/kg; ED50 [29, 31]: < 7.5 mg/kg; ED50 ([29]; C203, sc, 168 h, Subcutaneous, S. pyogenes C-203, dosed 1 and 5 hours post infection, 7 days, read-out: ED50): < 0.6 mg/kg
CC[C@H]1OC(=O)[C@H](C)[C@@H](O[C@H]2C[C@@](C)(OC)[C@@H](O)[C@H](C)O2)[C@H](C)[C@@H](O[C@@H]2O[C@H](C)C[C@H](N(C)C)[C@H]2O)[C@](C)(O)C[C@@H](C)[C@@H](N2CCOCC2)[C@H](C)[C@@H](O)[C@]1(C)O [Example 19] | 0.25 µg/mL (≈ 0.311 µM) | 4 µg/mL (≈ 4.97 µM) | 2 µg/mL (≈ 2.48 µM) | 4 µg/mL (≈ 4.97 µM) | 4 µg/mL (≈ 4.97 µM) | 2 µg/mL (≈ 2.48 µM) | 8 µg/mL (≈ 9.94 µM) | 2 µg/mL (≈ 2.48 µM) | 4 µg/mL (≈ 4.97 µM) | 4 µg/mL (≈ 4.97 µM) | 2 µg/mL (≈ 2.48 µM) | 2 µg/mL (≈ 2.48 µM) | 4 µg/mL (≈ 4.97 µM) | 0.05 µg/mL (≈ 0.0621 µM) | 6.2 µg/mL (≈ 7.7 µM) | 0.39 µg/mL (≈ 0.484 µM) | 0.39 µg/mL (≈ 0.484 µM) | 0.39 µg/mL (≈ 0.484 µM) | 0.05 µg/mL (≈ 0.0621 µM) | > 100 µg/mL | MIC ([1]; ATCC8043): 0.1 µg/mL (≈ 0.124 µM); MIC [2]: 0.2 µg/mL (≈ 0.248 µM); MIC [17]; 45: 0.39 µg/mL (≈ 0.484 µM); MIC [19]: 0.39 µg/mL (≈ 0.484 µM); MIC [25]: 0.05 µg/mL (≈ 0.0621 µM); MIC [26]: 0.39 µg/mL (≈ 0.484 µM); ED50 ([27]; NCTC10649, 168 h, Oral): 44.8 mg/kg; ED50 [27, 30]: 15.5 mg/kg; ED50 ([28]; Oral): 9.7 mg/kg; ED50 ([28]; sc, Subcutaneous): 1.1 mg/kg; ED50 [29, 31]: 9.5 mg/kg; ED50 ([29]; C203, sc, 168 h): 2.1 mg/kg

— patent publication US5075289A, “9-R-azacyclic erythromycin antibiotics” (priority 1988, dated 1991)
